Experimental data from paper PMC12272249, “Engineering high-efficiency matriptase substrates using E. coli display for applications in prodrug activation” (Cell Reports Methods, 2025).
Where “and” joins values, the source holds several entries; their conditions need not be identical. Identical values can stand only once. Like-named read-outs stand apart in the source and are kept apart here.

Tests used:
matriptase [1] = target: T1, matriptase (Homo sapiens, UniProt Q9Y5Y6); assay: E. coli display cleavage reporter assay, flow cytometry, matriptase treatment; assay type: biochemical; conditions: for cleavage reporter signal of matriptase-treated compared to untreated cells / time to complete cleavage: E. coli-displayed substrate; for cleavage reporter signal of matriptase-treated compared to untreated cells: 100 nM matriptase, 30 min, 37°C, n = 3; for time to complete cleavage: flow cytometry; for relative cleavage efficiency group (high, medium, low): E. coli-displayed substrate, 1, 10, 25 and 50 nM matriptase over 90 min
T1 construct: purchased R&D Systems (Bio-Techne) 3946-SEB
T1 sequence (Q9Y5Y6 615-855 limits assumed): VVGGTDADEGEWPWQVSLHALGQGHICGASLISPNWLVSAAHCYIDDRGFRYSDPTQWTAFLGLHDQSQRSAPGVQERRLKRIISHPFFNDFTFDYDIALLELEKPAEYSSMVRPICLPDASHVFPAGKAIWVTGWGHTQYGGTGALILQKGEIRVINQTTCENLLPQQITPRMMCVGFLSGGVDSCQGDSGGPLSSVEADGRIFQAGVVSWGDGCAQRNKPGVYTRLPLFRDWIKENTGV

matriptase [2] = target: T1, matriptase; assay: Cleavage of soluble substrates in affibody-ABD format, SDS-PAGE; assay type: biochemical; conditions: 37°C; for cleavage: affibody-ABD fusion 50 μg/mL in PBS, SDS-PAGE densitometry (ImageJ)
Experimental: Affibody-ABD substrates (50 μg/mL in PBS) were treated with 1, 10, or 50 nM matriptase at 37°C for 10, 30, or 60 min. Reactions were quenched by adding SDS loading buffer (31.2 mM Tris-HCl, pH 6.8, 1% SDS, 12.5% glycerol, 0.01% bromophenol blue, 5 mM TCEP) and heating at 90°C for 10 min. Samples were analyzed by SDS-PAGE as above. High-resolution gel images (600 dpi) were analyzed using ImageJ (v1.54i). Band intensities were quantified to assess the fraction of cleaved vs. intact substrate. Data were processed in Microsoft Excel and visualized with GraphPad Prism 10.

legumain = target: T2, legumain (Homo sapiens, UniProt Q99538); assay: FRET substrate stability against legumain; assay type: in vitro ADME; conditions: 30 μM Abz/Dnp peptide, 10 nM legumain, appropriate buffer, 37°C, 100 min (6,000 s), fluorescence, three replicates
T2 construct: purchased R&D Systems (Bio-Techne) 2199-CY
T2 sequence (Q99538 18-433): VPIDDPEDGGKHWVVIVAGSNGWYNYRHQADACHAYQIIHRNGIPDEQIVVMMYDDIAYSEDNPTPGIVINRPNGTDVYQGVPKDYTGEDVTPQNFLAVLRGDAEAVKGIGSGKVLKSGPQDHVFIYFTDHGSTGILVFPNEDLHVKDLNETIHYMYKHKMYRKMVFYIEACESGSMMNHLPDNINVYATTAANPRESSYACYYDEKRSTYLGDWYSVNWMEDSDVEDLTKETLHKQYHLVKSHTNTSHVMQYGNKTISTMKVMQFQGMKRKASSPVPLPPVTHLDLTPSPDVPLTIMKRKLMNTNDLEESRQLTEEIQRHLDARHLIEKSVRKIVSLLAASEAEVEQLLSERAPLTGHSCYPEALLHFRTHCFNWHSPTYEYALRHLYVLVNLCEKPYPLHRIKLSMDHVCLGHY
Experimental: (§1) (cysteine protease), urokinase plasminogen[36] (uPA; serine protease), and MMP-2[37] (matrix metalloprotease), respectively.
(§2) Initial velocity (V0) was calculated from early linear slopes. […] Fluorescence was recorded for 6000 s.

[3] = target: urokinase-type plasminogen activator (uPA) (Homo sapiens, UniProt P00749); assay: FRET substrate stability against uPA; assay type: in vitro ADME; conditions: 30 μM Abz/Dnp peptide, 10 nM uPA, appropriate buffer, 37°C, 100 min (6,000 s), fluorescence, three replicates
Experimental: as §1, §2

TEV protease = TEV protease (Tobacco etch virus, UniProt P04517); assay: E. coli display cleavage reporter assay, flow cytometry, TEV protease treatment; conditions: E. coli-displayed substrate, 100 nM TEV, 30 min, 30°C, n = 3
TEV protease, sequence (P04517 2038-2279): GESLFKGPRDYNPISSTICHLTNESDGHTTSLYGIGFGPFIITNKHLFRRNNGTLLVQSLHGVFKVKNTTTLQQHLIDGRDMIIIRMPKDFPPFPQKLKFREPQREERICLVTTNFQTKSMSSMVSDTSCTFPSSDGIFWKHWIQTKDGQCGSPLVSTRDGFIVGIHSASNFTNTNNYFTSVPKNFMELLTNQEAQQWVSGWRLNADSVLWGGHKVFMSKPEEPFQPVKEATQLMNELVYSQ

matriptase [4] = target: T1, matriptase; assay: FRET-based kinetic analysis of matriptase cleavage; assay type: biochemical; conditions: 10 nM matriptase; for substrate cleavage by matriptase under identical conditions: 30 μM Abz/Dnp peptide, 37°C, 6,000 s, three replicates; for Vmax / Km / kcat/KM / kcat: Abz/Dnp-labelled 6-mer peptide, PBS, 37°C, n = 3; for Vmax / Km / kcat: Michaelis-Menten fit; for Vmax / kcat/KM / kcat: average ± SD; for kcat: serial dilution of substrate, 90 min, Ex 320/Em 420 nm
matriptase [5] = target: T1, matriptase; assay type: biochemical
matriptase [6] = target: T1, matriptase; conditions: previously reported value; cited from earlier work
Experimental: The most promising newly discovered substrates (MtpB9, MtpC5, and MtpC9), along with control substrates, were chemically synthesized and linked to 2-aminobenzoyl (Abz) and 2,4-dinitrophenyl (Dnp), a standard fluorophore/quencher combination used in FRET assays (Figure 4A). A serial dilution of the substrates (ranging from 120 to 1.75 μM) was used to monitor matriptase cleavage activity. The reaction was tracked by measuring the Abz fluorescence continuously for 90 min. Kinetic parameters were calculated by fitting the cleavage rates to substrate concentrations using the Michaelis-Menten equati ...

Row | Substance | substrate cleavage by legumain (legumain) | substrate cleavage by uPA [3] | time to complete cleavage (matriptase [1]; 10 nM matriptase) | time to complete cleavage (matriptase [1]; 25 nM matriptase) | relative cleavage efficiency group (high, medium, low) (matriptase [1]) | substrate cleavage by matriptase under identical conditions (matriptase [4]) | Vmax (matriptase [4]) | Km (matriptase [4]) | kcat/KM (matriptase [4]) | kcat (matriptase [4]) | time to complete cleavage (matriptase [5]) | further results
1 | ENLYFQG [TEV-control, reference compound] | No detectable cleavage | No detectable cleavage |  |  |  |  |  |  |  |  |  | cleavage reporter signal of matriptase-treated compared to untreated cells (matriptase [1]): No significant difference; cleavage under any tested conditions (matriptase [2]; affibody-ABD fusion, 1, 10 or 50 nM matriptase, 10, 30 or 60 min, SDS-PAGE): no cleavage; cleavage reporter signal of TEV-treated compared to untreated cells (TEV protease): significantly lower signals
2 | GAKSRR [MtpB9] | No detectable substrate cleavage | No detectable substrate cleavage | 60 min | ≤ 30 min | high | cleavage was observed | 0.04 ± 0.0007 µM/s | 18.7 µM | 2.3E+05 ± 3,948 M^−1 s^−1 | 4.4 ± 0.07 s⁻¹ | ≤ 30 min | 
3 | HYKGRK [MtpC9] | No detectable substrate cleavage | No detectable substrate cleavage | 60 min | ≤ 30 min | high | cleavage was observed | 0.06 ± 0.0021 µM/s | 29.1 µM | 1.9E+05 ± 7,099 M^−1 s^−1 | 5.6 ± 0.21 s⁻¹ | ≤ 30 min | 
4 | LKRLMR [MtpA6] |  |  |  |  | low |  |  |  |  |  |  | 
5 | LSGRSDNH [Mtp-control, reference compound] | No detectable cleavage | No detectable cleavage |  |  |  |  | 0.02 ± 0.0057 µM/s | 191 µM | 1.28E+04 ± 2,969 M^−1 s^−1 and 1.3E+04 ± 2,969 M^−1 s^−1 | 2.5 ± 0.57 s⁻¹ |  | cleavage reporter signal of matriptase-treated compared to untreated cells (matriptase [1]): significantly lower signals; cleavage (matriptase [2]; 50 nM matriptase, 1 h): 96%; kcat/KM in the previous study (matriptase [6]): 2200 M⁻¹ s⁻¹; cleavage reporter signal of TEV-treated compared to untreated cells (TEV protease): No significant difference
6 | MGRSFY [MtpB11] |  |  |  |  | medium |  |  |  |  |  |  | 
7 | MKRKAR [MtpC10] |  |  |  |  | medium |  |  |  |  |  |  | 
8 | PFKRQL [MtpC12] |  |  |  |  | low |  |  |  |  |  |  | 
9 | VPRGRR [MtpC5] | No detectable substrate cleavage | No detectable substrate cleavage | 60 min | ≤ 30 min | high | cleavage was observed | 0.06 ± 0.0005 µM/s | 12.5 µM | 5.13E+05 ± 3,910 M^−1 s^−1 and 5.1E+05 ± 3,910 M^−1 s^−1 | 6.4 ± 0.05 s⁻¹ | ≤ 30 min | cleavage (matriptase [2]; 1 nM matriptase, 10 min, two replicates): approximately 86%
